45 sequences from the OligoGym collection can be followed below.

Values joined by “and” are separate entries in the source; they are usually repeats but may differ in a detail not shown here. Equal values may be shown once. After the bases stand the sugars from the 5' end (letter, count) and the backbone: PS all phosphorothioate, else s phosphorothioate and o phosphodiester by linkage. Methylation of C is not given here. e = 2'-O-(2-methoxyethyl) (MOE); k = constrained ethyl (cEt); d = 2'-deoxy (DNA)

For the data set, the target named is SOD1. The settings on record: ASO.

As to “ATACATTTCTACAGCTAG (sugars e5 d8 e5, linkages s1 o3 s9 o2 s2)”, the target mRNA inhibition is, setting by setting: (A431, 0.12 µM) 9%; (A431, 0.6 µM) 10%; (A431, 3 µM) 27%; (A431, 15 µM) 43%; (HepG2, 0.222 µM) 7%; (HepG2, 0.667 µM) 28%. Besides, the target mRNA inhibition is, setting by setting: (HepG2, 2 µM) 54%; (HepG2, 6 µM) 79%.

The sequence “ATAGCCTCATAATAAGTGCC (sugars e5 d10 e5, PS)” had a target mRNA inhibition (HepG2, 5 µM) of 19%.

Regarding “ATCACAGAATCTTCAATAGA (sugars e5 d10 e5, PS)”, the target mRNA inhibition (HepG2, 5 µM) was 11% and 10%.

The sequence “ATCCAAGGGAATGTTTA (sugars e2 k2 d8 k2 e3, PS)” had a target mRNA inhibition (HepG2, 4 µM) of 35%.

For “ATCCAAGGGAATGTTTA (sugars e2 k2 d9 k2 e2, PS)”, the target mRNA inhibition (HepG2, 4 µM) stood at 39%.

In the case of “ATCTGCTTTTTCATGGA (sugars e3 k2 d7 k2 e3, PS)”, under “HepG2, 3 µM”, the target mRNA inhibition was 42%.

Regarding “ATCTTCCAAGTGATCAT (sugars e2 k2 d9 k2 e2, PS)”, for the setting “HepG2, 5 µM”, the target mRNA inhibition was 38%.

For the sequence “ATCTTCCAAGTGATCAT (sugars e3 k2 d7 k2 e3, PS)”, under “HepG2, 3 µM”, the target mRNA inhibition amounted to 7%.

Sequence “ATGAACATGGAATCCAT (sugars e3 k2 d7 k2 e3, PS)” displayed a target mRNA inhibition (HepG2, 3 µM) of 8%.

Consider “ATGTTTATCAGGATACA (sugars e3 k1 d8 k1 e4, linkages s1 o2 s9 o2 s2)”, for which the target mRNA inhibition reads like this: (A431, 0.062 µM) 7%; (A431, 0.185 µM) 18%; (A431, 0.556 µM) 38%; (A431, 1.667 µM) 53%; (A431, 5 µM) 68%; (A431, 15 µM) 79%. Besides, the target mRNA inhibition worked out at 4% (SH-SY5Y, 0.062 µM); 30% (SH-SY5Y, 0.185 µM); 51% (SH-SY5Y, 0.556 µM); 68% (SH-SY5Y, 1.667 µM); 88% (SH-SY5Y, 5 µM); 92% (SH-SY5Y, 15 µM).

In turn, “ATGTTTATTGGGCGATC (sugars e3 k2 d7 k2 e3, PS)” came in with a target mRNA inhibition (HepG2, 3 µM) of 28%.

Regarding “ATTCACAGGCTTGAATG (sugars e2 k2 d9 k2 e2, PS)”, under “HepG2, 5 µM”, the target mRNA inhibition is 29%.

Turning to “ATTGATGATGCCCTGCACTG (sugars e5 d10 e5, PS)”, the target mRNA inhibition (HepG2, 4 µM) is 8%.

The sequence “ATTTCTACAGCTAGCAG (sugars e2 k2 d9 k2 e2, PS)” registered a target mRNA inhibition (HepG2, 0.1875 µM) of 10%; a target mRNA inhibition (HepG2, 0.75 µM) of 47%; a target mRNA inhibition (HepG2, 3 µM) of 77%; a target mRNA inhibition (HepG2, 4 µM) of 75%; a target mRNA inhibition (HepG2, 12 µM) of 91%.

As to “CAAGTGATCATAAATCA (sugars e2 k2 d8 k2 e3, PS)”, the target mRNA inhibition (HepG2, 5 µM) was 47%.

For the sequence “CAAGTGATCATAAATCA (sugars e2 k2 d9 k2 e2, PS)”, for the setting “HepG2, 5 µM”, the target mRNA inhibition stood at 29%.

As to “CAAGTTTAATACCCATC (sugars e2 k2 d8 k2 e3, PS)”, the target mRNA inhibition (HepG2, 5 µM) stood at 52%.

As to “CAATTACACCACAAGCC (sugars e2 k2 d8 k2 e3, PS)”, the target mRNA inhibition (HepG2, 4 µM) is 58%.

For the setting “HepG2, 5 µM”, “CACAAGCCAAACGACTTCCA (sugars e5 d10 e5, PS)” returned a target mRNA inhibition of 47%.

For the sequence “CACACCTTCACTGGTCC (sugars e3 k2 d7 k2 e3, PS)”, where the note is “HepG2, 3 µM”, the target mRNA inhibition was found to be 12%.

With “CACAGAATCTTCAATAGACA (sugars e5 d10 e5, PS)”, the target mRNA inhibition (HepG2, 5 µM) was 10% and 14%.

Consider “CACATTGCCCAAGTCTCCAA (sugars e5 d10 e5, PS)”, for which the target mRNA inhibition (HepG2, 5 µM) is 36% and 19%.

In turn, “CACTACAGGTACTTTAA (sugars e2 k2 d8 k2 e3, PS)” came in with a target mRNA inhibition (HepG2, 5 µM) of 27%.

As to “CACTTTTAAGATTACAG (sugars e2 k2 d9 k2 e2, PS)”, the target mRNA inhibition (HepG2, 5 µM) worked out at 49%.

Turning to “CAGCAGTCACATTGCCC (sugars e3 k2 d7 k2 e3, PS)”, for the setting “HepG2, 3 µM”, the target mRNA inhibition was 7%.

Turning to “CAGCTAGCAGGATAACA (sugars e3 k2 d7 k2 e3, PS)”, the target mRNA inhibition (HepG2, 3 µM) came out at 21%.

In the case of “CAGGATACATTTCTACA (sugars e2 k2 d8 k2 e3, PS)”, the target mRNA inhibition runs as follows: (HepG2, 0.1875 µM) 30%; (HepG2, 0.75 µM) 62%; (HepG2, 3 µM) 81%; (HepG2, 4 µM) 79%; (HepG2, 12 µM) 94%.

For “CAGGATACATTTCTACA (sugars e2 k2 d9 k2 e2, PS)”, the target mRNA inhibition reads like this: (HepG2, 0.1875 µM) 38%; (HepG2, 0.75 µM) 71%; (HepG2, 3 µM) 89%; (HepG2, 4 µM) 85% and 86%; (HepG2, 12 µM) 91% and 97%.

“CAGGATACATTTCTACAGCT (sugars e5 d10 e5, linkages sososssssssssssosos)”: the target mRNA inhibition by setting is: (A431, 0.062 µM) 20%; (A431, 0.185 µM) 29%; (A431, 0.556 µM) 49%; (A431, 1.667 µM) 69%; (A431, 5 µM) 76%; (A431, 15 µM) 83%. Moreover, the target mRNA inhibition worked out at 0% (SH-SY5Y, 0.062 µM); 17% (SH-SY5Y, 0.185 µM); 39% (SH-SY5Y, 0.556 µM); 59% (SH-SY5Y, 1.667 µM); 85% (SH-SY5Y, 5 µM); 82% (SH-SY5Y, 15 µM).

“CAGGGTTTTTATTCACA (sugars e3 k2 d7 k2 e3, PS)” registered a target mRNA inhibition (HepG2, 3 µM) of 17%.

In the case of “CAGTCACATTGCCCAAGTCT (sugars e5 d10 e5, PS)”, the target mRNA inhibition (HepG2, 5 µM) is 40% and 27%.

As for “CAGTGTTTAATGTTTAT (sugars e2 k2 d8 k2 e3, PS)”, the target mRNA inhibition (HepG2, 0.1875 µM) amounted to 30%; the target mRNA inhibition (HepG2, 0.75 µM) was 61%; the target mRNA inhibition (HepG2, 3 µM) came out at 79%; the target mRNA inhibition (HepG2, 4 µM) was determined as 75%; the target mRNA inhibition (HepG2, 5 µM) amounted to 77%; the target mRNA inhibition (HepG2, 12 µM) was 81% and 87%.

For “CAGTTTCTCACTACAGGTAC (sugars e5 d10 e5, PS)”, the target mRNA inhibition (HepG2, 5 µM) is 25%.

“CATAATAAGTGCCATAC (sugars e2 k2 d8 k2 e3, PS)” had a target mRNA inhibition (HepG2, 5 µM) of 32%.

Under “HepG2, 3 µM”, “CATCCAAGGGAATGTTT (sugars e3 k2 d7 k2 e3, PS)” had a target mRNA inhibition of 16%.

In turn, “CATCTGCTTTTTCATGG (sugars e3 k2 d7 k2 e3, PS)” gave a target mRNA inhibition (HepG2, 3 µM) of 70%.

For “CATCTGTGATTTAAGTC (sugars e2 k2 d8 k2 e3, PS)”, the target mRNA inhibition (HepG2, 5 µM) is 42%.

Consider “CATCTTTGTCAGCAGTCACA (sugars e5 d10 e5, PS)”, for which, where the note is “HepG2, 5 µM”, the target mRNA inhibition is 34% and 13%.

Sequence “CATTACTTTCCTTCTGC (sugars e3 k2 d7 k2 e3, PS)” yielded a target mRNA inhibition (HepG2, 3 µM) of 28%.

In turn, “CCAACATGCCTCTCTTC (sugars e3 k2 d7 k2 e3, PS)” yielded a target mRNA inhibition (HepG2, 3 µM) of 0%.

Take “CCAAGGGAATGTTTATT (sugars e2 k2 d9 k2 e2, PS)”: the target mRNA inhibition (HepG2, 4 µM) was 52%.

On to “CCAAGTGATCATAAATCAGT (sugars e5 d10 e5, PS)”, for which, for the setting “HepG2, 5 µM”, the target mRNA inhibition stood at 39%.

Regarding “CCAATTACACCACAAGC (sugars e2 k2 d9 k2 e2, PS)”, the target mRNA inhibition came to 7% (HepG2, 0.1875 µM); 32% (HepG2, 0.75 µM); 77% (HepG2, 3 µM); 73% (HepG2, 4 µM); 96% (HepG2, 12 µM).

Take “CCAGCACCCCGTCTCCGCGA (sugars e5 d10 e5, PS)”: the target mRNA inhibition (HepG2, 4 µM) turned out to be 38%.

As to “CCATAACTCGCTAGGCCACG (sugars e5 d10 e5, PS)”, the target mRNA inhibition (HepG2, 4 µM) is 22%.
